Columns and labels:
[1] = test system: Enterococcus sp.; assay: in vitro antibacterial evaluation, MIC by broth dilution; assay type: cell-based; details: broth dilution, 18 hours at 35° C.
Outline: (§1)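 Read-out: the lowest concentration at which the test strain fails to grow. Serial dilutions (64-0.06 μg/mL) in Muller-Hinton II […], 5×10^5 CFU/mL inoculum, NCCLS M7-A2 procedure.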

[2] = test system: Escherichia coli; assay: as above; assay type: cell-based; details: 18 hours at 35° C.
Outline: as §1

[3] = test system: Staphylococcus sp.; assay: as above; assay type: cell-based; details: broth dilution, 18 hours at 35° C.
Outline: as §1

[4] = test system: Streptococcus sp.; assay: as above; assay type: cell-based; details: broth dilution, 18 hours at 35° C.
Outline: as §1

[5] = test system: Enterococcus faecalis (GC 6189); assay: acute lethal infection in mice; assay type: in vivo; details: female CD-1 mice, intraperitoneal challenge, intravenous 30 min. after infection, 7 day survival
Outline: (§2)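 Female CD-1 mice (20±2 g) got an intraperitoneal bacterial challenge lethal to untreated controls within 24–48 hr. Compound was dosed intravenously 30 min after infection, five mice per dose. ED50 was calculated from 7-day survival pooled across 3 tests.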

[6] = test system: Staphylococcus aureus-SMITH (GC 4543); assay: acute lethal infection in mice; assay type: in vivo; details: acute lethal infection, female CD-1 mice, intraperitoneal challenge, intravenous 30 min. after infection, 7 day survival
Outline: as §2

Cc1cccc(C2OCC3OC(OC4C(CO)OC(Oc5ccc(CC6NC(=O)C(C(C)c7ccccc7)NC(=O)CNC(=O)C(CO)NC(=O)C(C(O)C7CNC(=N)N7C7OC(CO)C(O)C(O)C7O)NC(=O)C(C(O)C7CNC(=N)N7)NC6=O)cc5)C(O)C4O)C(O)C(O)C3O2)c1 (stereo not drawn) [Example 135, Cyclo[glycyl-β-methylphenylalanyl-O-[4-O-[4,6-O-(3-methylbenzylidene)hexopyranosyl]-hexopyranosyl]tyrosyl-3-(2-iminoimidazolidin-4-yl)seryl-3-(3-hexopyranosyl-2-iminoimidazolidin-4-yl)serylseryl]]
0.25 µg/mL: MIC Streptococcus agalactiae (GC 4564) ([4]; Streptococcus agalactiae (GC 4564)) | MIC Streptococcus pyogenes (GC 4563) ([4]; Streptococcus pyogenes (GC 4563)) | MIC Streptococcus pyogenes (GC 4563) ([4]; strain GC 4563) | MIC Streptococcus agalactiae (GC 4564) ([4]; strain GC 4564)
2 µg/mL: MIC Enterococcus avium (GC 4558) ([1]; Enterococcus avium (GC 4558)) | MIC Enterococcus faecalis (ATCC 29212) ([1]; Enterococcus faecalis (ATCC 29212)) | MIC Enterococcus faecalis (GC 2242) ([1]; Enterococcus faecalis (GC 2242)) | MIC Enterococcus faecalis (GC 2691) ([1]; Enterococcus faecalis (GC 2691)) | MIC Enterococcus faecalis (GC 3059) ([1]; Enterococcus faecalis (GC 3059)) | MIC Enterococcus faecalis (GC 4552) ([1]; Enterococcus faecalis (GC 4552)) | MIC Enterococcus faecalis (GC 4553) ([1]; Enterococcus faecalis (GC 4553)) | MIC Enterococcus faecalis (GC 4554) ([1]; Enterococcus faecalis (GC 4554)) | MIC Enterococcus faecalis (GC 6189) ([1]; Enterococcus faecalis (GC 6189)) | MIC Enterococcus faecium (GC 2243) ([1]; Enterococcus faecium (GC 2243)) | MIC Enterococcus faecium (GC 4556) ([1]; Enterococcus faecium (GC 4556)) | MIC Enterococcus faecium (GC 4557) ([1]; Enterococcus faecium (GC 4557)) | MIC Enterococcus faecalis (ATCC 29212) ([1]; strain ATCC 29212) | MIC Enterococcus faecalis (GC 2242) ([1]; strain GC 2242) | MIC Enterococcus faecium (GC 2243) ([1]; strain GC 2243) | MIC Enterococcus faecalis (GC 2691) ([1]; strain GC 2691) | MIC Enterococcus faecalis (GC 3059) ([1]; strain GC 3059) | MIC Enterococcus faecalis (GC 4552) ([1]; strain GC 4552) | MIC Enterococcus faecalis (GC 4553) ([1]; strain GC 4553) | MIC Enterococcus faecalis (GC 4554) ([1]; strain GC 4554) | MIC Enterococcus faecium (GC 4556) ([1]; strain GC 4556) | MIC Enterococcus faecium (GC 4557) ([1]; strain GC 4557) | MIC Enterococcus avium (GC 4558) ([1]; strain GC 4558) | MIC Enterococcus faecalis (GC 6189) ([1]; strain GC 6189) | MIC Staphylococcus aureus (GC 4544) [3] | MIC Staphylococcus aureus (GC 4544) ([3]; strain GC 4544)
0.07 mg/kg: median effective dose (ED50), Staphylococcus aureus-SMITH (GC 4543) [6]
<0.06 µg/mL: MIC Streptococcus pneumoniae (ATCC 6301) ([4]; Streptococcus pneumoniae (ATCC 6301)) | MIC Streptococcus pneumoniae (GC 1894) ([4]; Streptococcus pneumoniae (GC 1894)) | MIC Streptococcus pneumoniae (GC 4565) ([4]; Streptococcus pneumoniae (GC 4565)) | MIC Streptococcus pneumoniae (ATCC 6301) ([4]; strain ATCC 6301) | MIC Streptococcus pneumoniae (GC 1894) ([4]; strain GC 1894) | MIC Streptococcus pneumoniae (GC 4565) ([4]; strain GC 4565)
0.5 µg/mL: MIC Escherichia coli (GC 4560) ([2]; strain GC 4560) | MIC Staphylococcus haemolyticus (GC 4546) ([3]; strain GC 4546) | MIC Coagulase Negative Staphylococcus (GC 4548) ([3]; strain GC 4548) | MIC Coagulase Negative Staphylococcus (GC 4549) ([3]; strain GC 4549) | MIC Coagulase Negative Staphylococcus (GC 6257) ([3]; strain GC 6257)
0.26 mg/kg: median effective dose (ED50), Enterococcus faecalis (GC 6189) [5]
32 µg/mL: MIC Escherichia coli (ATCC 25922) ([2]; strain ATCC 25922) | MIC Escherichia coli (GC 4559) ([2]; strain GC 4559)
1 µg/mL: MIC Staphylococcus aureus (ATCC 29213) [3] | MIC Staphylococcus aureus (GC 1131) [3] | MIC Staphylococcus aureus (GC 3051) [3] | MIC Staphylococcus aureus (GC 3053) [3] | MIC Staphylococcus aureus (GC 4541) [3] | MIC Staphylococcus aureus (GC 4542) [3] | MIC Staphylococcus aureus (GC 4545) [3] | MIC Staphylococcus aureus (GC 1131) ([3]; inoculum 5×10^5 CFU/mL, strain GC 1131) | MIC Staphylococcus aureus (ATCC 29213) ([3]; strain ATCC 29213) | MIC Staphylococcus aureus (GC 3051) ([3]; strain GC 3051) | MIC Staphylococcus aureus (GC 3053) ([3]; strain GC 3053) | MIC Staphylococcus aureus (GC 4541) ([3]; strain GC 4541) | MIC Staphylococcus aureus (GC 4542) ([3]; strain GC 4542) | MIC Staphylococcus aureus-SMITH (GC 4543) ([3]; strain GC 4543) | MIC Staphylococcus aureus (GC 4545) ([3]; strain GC 4545) | MIC Coagulase Negative Staphylococcus (GC 4547) ([3]; strain GC 4547) | MIC Coagulase Negative Staphylococcus (GC 4551) ([3]; strain GC 4551) | MIC Staphylococcus aureus-SMITH (GC 4543) ([3]; strain SMITH GC 4543)

Source: patent US6914045B2, “Glycopeptide antibiotics” (Wyeth Holdings Corporation, priority 2001, dated 2005)
